# From paper PMC5833756, “A novel ruthenium complex with xanthoxylin induces S-phase arrest and causes ERK1/2-mediated apoptosis in HepG2 cells through a p53-independent pathway” (Cell Death & Disease, 2018)
# Where two headings read alike, the source gives them in different places.
# Key:
# HCT116 = type: cell-based, human; conditions: HCT116 (human colon carcinoma), 72 h
# MCF-7 = type: cell-based, human; conditions: MCF-7 (human breast adenocarcinoma), 72 h
# HepG2 = type: cell-based, human; conditions: HepG2 (human hepatocellular carcinoma), monolayer, 72 h
# SCC-9 = type: cell-based, human; conditions: SCC-9 (human oral squamous cell carcinoma), 72 h
# SCC-25 = type: cell-based, human; conditions: SCC-25 (human oral squamous cell carcinoma), 72 h
# ACP-02 = type: cell-based, human
# ACP-03 = type: cell-based, human
# HL-60 = type: cell-based, human; conditions: HL-60 (human promyelocytic leukemia), 72 h
# K-562 = type: cell-based, human; conditions: K-562 (human chronic myelogenous leukemia), 72 h
# B16-F10 = type: cell-based, mouse; conditions: B16-F10 (murine melanoma), 72 h
# MRC-5 = type: cell-based; conditions: MRC-5 (human lung fibroblast, non-cancer), 72 h
# HaCAT = type: cell-based; conditions: HaCAT (human keratinocyte, non-cancer), 72 h
# [1] = test system: multicellular spheroids formed from HepG2 cells; assay: 3D multicellular spheroid culture, alamar blue; type: cell-based, human; conditions: HepG2 3D spheroids, 72 h
# Description: HepG2 cells were cultivated in 3D multicellular spheroids. Briefly, 100 μL of cell solution (0.5 × 10^6 cells/mL) was added to a 96-well plate with a cell-repellent surface (Greiner Bio-One, Kremsmünster, Austria) and cultured in complete medium plus 3% Matrigel (BD Biosciences, San Jose, CA, USA). Spheroids with stable structures formed after three days. Then, the spheroids were exposed to a range of drug concentrations for 72 h. The negative control received the vehicle that was used for diluting the complex tested. In the end of the experiment, morphological changes were examined by light microscopy (Olympus BX41, Tokyo, Japan) using Image-Pro software (Media Cybernetics, Inc. Silver Spring, USA), and cell viability was quantified by alamar blue assay as described above.
# BAD KO SV40 MEF = type: cell-based, mouse; conditions: 72 h
# HepG2 cells [2] = assay: Trypan blue exclusion assay; type: cell-based, human
# HepG2 cells [3] = type: cell-based, human
# Description: Briefly, the cells were harvested in a permeabilization solution containing 0.1% Triton X-100, 2 µg/mL PI, 0.1% sodium citrate and 100 µg/mL RNAse (all from Sigma-Aldrich) and incubated in the dark for 15 min at room temperature. Finally, cell fluorescence was measured by flow cytometry with a BD LSRFortessa cytometer using BD FACSDiva Software (BD Biosciences) and FlowJo Software 10 (FlowJo Lcc; Ashland, OR, USA). Ten thousand events were evaluated per experiment, and cellular debris was omitted from the analysis.
# AGP-01 = AGP-01 (human ascitic gastric adenocarcinoma), 72 h
# [4] = for Initial body weight: before treatment; for Final body weight / Survival / Differential leukocytes: Eosinophils / Differential leukocytes: Lymphocytes / Differential leukocytes: Monocytes / Differential leukocytes: Neutrophils / Erythrocytes / Total leukocytes: i.p. 21 days; for Differential leukocytes: Eosinophils / Differential leukocytes: Lymphocytes / Differential leukocytes: Monocytes / Differential leukocytes: Neutrophils / Erythrocytes / Total leukocytes: peripheral blood
# Description: HepG2 cells (1 × 10^7 cells per 500 µL) were implanted subcutaneously into the left front armpit of the mice. […] The treatments were initiated one day after the tumor cell injection. The animals were treated intraperitoneally (200 µL per animal) once daily for 21 consecutive days. On the 22nd day, the animals were anesthetized, and peripheral blood samples were collected from the brachial artery. Animals were euthanized by anesthetic overdose, and tumors were excised and weighed.
# To assess the toxicological effects, mice were weighed at the beginning and at the end of the experiment. […] Hematological analysis was performed using light microscopy. Livers, kidneys, lungs and hearts were removed, weighed and examined for any signs of gross lesions, color changes and/or hemorrhages. After gross macroscopic examination, the tumors, livers, kidneys, lungs and hearts were fixed in 4% formalin buffer and embedded in paraffin. Tissue sections were stained with hematoxylin and eosin chromogens, and a pathologist performed the analysis under a light microscope.
# [5] = HepG2, 12 h, DOX 2 µM, OXA 10 µM, RCX 12 µM
# [6] = HepG2, 24 h, DOX 2 µM, OXA 10 µM, RCX 12 µM
# [7] = HepG2, 48 h, DOX 2 µM, OXA 10 µM, RCX 12 µM
# [8] = HepG2, 72 h, DOX 2 µM, OXA 10 µM, RCX 12 µM
# [9] = DOX 0.3 mg/kg, 5-FU 10 mg/kg, RCX 2.5 mg/kg
# 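For Final body weight in this document: mice bearing subcutaneous HepG2 xenografts, given intraperitoneal doses once daily for 21 days, weighed at start and end, blood leukocytes counted by light microscopy on day 22.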
# 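For Initial body weight in this document: mice bearing subcutaneous HepG2 xenografts, given intraperitoneal doses once daily for 21 days, weighed at start and end, blood leukocytes counted by light microscopy on day 22.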
# 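For liver histopathological characteristics in this document: mice bearing subcutaneous HepG2 xenografts, given intraperitoneal doses once daily for 21 days, weighed at start and end, blood leukocytes counted by light microscopy on day 22.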
# 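For lung histopathological characteristics in this document: mice bearing subcutaneous HepG2 xenografts, given intraperitoneal doses once daily for 21 days, weighed at start and end, blood leukocytes counted by light microscopy on day 22.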
structure (smiles),measurement,setting,value
"COc1cc([O-])c(C(C)=O)c(OC)c1.F[P-](F)(F)(F)(F)F.[Ru+2].c1cnc2c(c1)ccc1cccnc12.c1cnc2c(c1)ccc1cccnc12 [RCX, cis-[Ru(phen)2(xant)](PF6)]",IC50,HCT116,1.6 µM
same,IC50,MCF-7,22.4 µM
same,IC50,HepG2,13.5 µM
same,IC50,SCC-9,3.4 µM
same,IC50,SCC-25,6.5 µM
same,selectivity index (SI),ACP-02,0.3
same,IC50,"ACP-02; ACP-02 (human gastric adenocarcinoma), 72 h",18.3 µM
same,selectivity index (SI),ACP-03,0.2
same,IC50,"ACP-03; ACP-03 (human gastric adenocarcinoma), 72 h",26 µM
same,IC50,HL-60,6.6 µM
same,IC50,K-562,6.1 µM
same,IC50,B16-F10,12.4 µM
same,IC50,MRC-5,21.3 µM
same,IC50,HaCAT,6.1 µM
same,IC50,[1],8 µM
same,IC50,BAD KO SV40 MEF,4.1 µM
same,reduction of the number of viable cells,"HepG2 cells [2]; HepG2, 12 μM, 24 h",57.2%
same,reduction of the number of viable cells,"HepG2 cells [2]; HepG2, 12 μM, 48 h",74.6%
same,reduction of the number of viable cells,"HepG2 cells [2]; HepG2, 12 μM, 72 h",73.8%
same,reduction of the number of viable cells,"HepG2 cells [2]; HepG2, 24 μM, 24 h",62.2%
same,reduction of the number of viable cells,"HepG2 cells [2]; HepG2, 24 μM, 48 h",73.9%
same,reduction of the number of viable cells,"HepG2 cells [2]; HepG2, 24 μM, 72 h",82.1%
same,change in the number of viable cells,"HepG2 cells [2]; HepG2, 12 and 24 μM, 12 h",No significant decrease in the number of viable cells
same,DNA content G0/G1,HepG2 cells [3]; [5],66.4 ± 4.0%
same,DNA content G2/M,HepG2 cells [3]; [5],13.3 ± 1.1%
same,DNA content S,HepG2 cells [3]; [5],18.0 ± 7.4%
same,DNA content Sub-G0/G1,HepG2 cells [3]; [5],9.6 ± 1.1 %
same,DNA content G0/G1,"HepG2 cells [3]; HepG2, 12 h, RCX 24 µM",68.9 ± 2.2%
same,DNA content G2/M,"HepG2 cells [3]; HepG2, 12 h, RCX 24 µM",13.9 ± 1.6%
same,DNA content S,"HepG2 cells [3]; HepG2, 12 h, RCX 24 µM",8.6 ± 4.5%
same,DNA content Sub-G0/G1,"HepG2 cells [3]; HepG2, 12 h, RCX 24 µM",13.0 ± 2.5 %
same,DNA content G0/G1,HepG2 cells [3]; [6],38.2 ± 1.2 %
same,DNA content G2/M,HepG2 cells [3]; [6],17.6 ± 0.9%
same,DNA content S,HepG2 cells [3]; [6],22.4 ± 0.7 %
same,DNA content Sub-G0/G1,HepG2 cells [3]; [6],15.3 ± 0.6 %
same,DNA content G0/G1,"HepG2 cells [3]; HepG2, 24 h, RCX 24 µM",29.9 ± 2.7 %
same,DNA content G2/M,"HepG2 cells [3]; HepG2, 24 h, RCX 24 µM",13.0 ± 1.3%
same,DNA content S,"HepG2 cells [3]; HepG2, 24 h, RCX 24 µM",13.0 ± 1.6%
same,DNA content Sub-G0/G1,"HepG2 cells [3]; HepG2, 24 h, RCX 24 µM",34.7 ± 1.4 %
same,DNA content G0/G1,HepG2 cells [3]; [7],23.3 ± 2.0 %
same,DNA content G2/M,HepG2 cells [3]; [7],9.0 ± 0.8 %
same,DNA content S,HepG2 cells [3]; [7],11.5 ± 2.7%
same,DNA content Sub-G0/G1,HepG2 cells [3]; [7],44.1 ± 6.3 %
same,DNA content G0/G1,"HepG2 cells [3]; HepG2, 48 h, RCX 24 µM",18.9 ± 3.0 %
same,DNA content G2/M,"HepG2 cells [3]; HepG2, 48 h, RCX 24 µM",6.5 ± 0.7 %
same,DNA content S,"HepG2 cells [3]; HepG2, 48 h, RCX 24 µM",10.3 ± 1.3%
same,DNA content Sub-G0/G1,"HepG2 cells [3]; HepG2, 48 h, RCX 24 µM",62.6 ± 3.4 %
same,DNA content G0/G1,HepG2 cells [3]; [8],23.6 ± 1.9 %
same,DNA content G2/M,HepG2 cells [3]; [8],11.1 ± 1.8%
same,DNA content S,HepG2 cells [3]; [8],13.2 ± 0.8%
same,DNA content Sub-G0/G1,HepG2 cells [3]; [8],42.6 ± 6.8 %
same,DNA content G0/G1,"HepG2 cells [3]; HepG2, 72 h, RCX 24 µM",19.7 ± 3.3 %
same,DNA content G2/M,"HepG2 cells [3]; HepG2, 72 h, RCX 24 µM",6.7 ± 0.7%
same,DNA content S,"HepG2 cells [3]; HepG2, 72 h, RCX 24 µM",4.9 ± 1.1 %
same,DNA content Sub-G0/G1,"HepG2 cells [3]; HepG2, 72 h, RCX 24 µM",68.2 ± 3.7 %
same,IC50,AGP-01,5.3 µM
same,lung histopathological characteristics,"[4]; atelectasis, hemorrhage, inflammation, congestion, doxorubicin 0.3 mg/kg, RCX both doses, 21 days",more pronounced in the doxorubicin and RCX (both doses) groups than in the other groups
same,Initial body weight,"[4]; DOX 0.3 mg/kg, 5-FU 10 mg/kg, RCX 2.5 mg/kg groups",22.2 ± 0.5 g
same,Initial body weight,[4]; RCX 5 mg/kg group,21.1 ± 0.4 g
same,liver histopathological characteristics,"[4]; hydropic degeneration, dilatation, necrosis, inflammation, RCX 2.5 and 5 mg/kg, 21 days",more pronounced in the RCX groups than in the other groups
same,Final body weight,[4]; [9],20.6 ± 0.4 g
same,Survival,[4]; [9],14/14
same,Final body weight,[4]; RCX 5 mg/kg,17.0 ± 0.4 g
same,Survival,[4]; RCX 5 mg/kg,7/14
same,Differential leukocytes: Eosinophils,[4]; [9],1.0%
same,Differential leukocytes: Lymphocytes,[4]; [9],49.3%
same,Differential leukocytes: Monocytes,[4]; [9],1.0%
same,Differential leukocytes: Neutrophils,[4]; [9],48.3%
same,Erythrocytes,[4]; [9],9.0 ± 0.6 10^6cells/μL
same,Total leukocytes,[4]; [9],3.1 ± 0.5 10^3cells/μL
same,Differential leukocytes: Eosinophils,[4]; RCX 5 mg/kg,1.0%
same,Differential leukocytes: Lymphocytes,[4]; RCX 5 mg/kg,49.0%
same,Differential leukocytes: Monocytes,[4]; RCX 5 mg/kg,1.0%
same,Differential leukocytes: Neutrophils,[4]; RCX 5 mg/kg,49.0%
same,Erythrocytes,[4]; RCX 5 mg/kg,8.3 ± 0.3 10^6cells/μL
same,Total leukocytes,[4]; RCX 5 mg/kg,2.6 ± 0.2 10^3cells/μL
